Measurements published in patent US8946189B2, “Transplants” (priority 2007, dated 2015).
Where “and” joins values, the source holds several entries; their conditions need not be identical. Equal values may be shown once. Entries after “also recorded” stand apart in the source; their conditions may differ.

Key:
[1] = in vivo; cited from earlier work
human NK(1) receptor = human NK(1) receptor (Homo sapiens, UniProt P25103); details: cited from earlier work
[2] = system: NK(2) and NK(3) receptors; details: vs NK(1); cited from earlier work
[3] = system: human saphenous vein rings and rat aortic rings; type: cell-based
[4] = system: vascular smooth muscle cells; details: cited from earlier work
[5] = cited from earlier work
[6] = system: isolated rat aortic rings; test: Organ bath tension of isolated rat aortic rings (intact and denuded) precontracted with norepinephrine; type: cell-based; details: for Tension of aortic rings: after 0.3 uM norepinephrine
[7] = oral and/or intravenous, 10, 25, 50 and 100 mg/kg body weight; cited from earlier work

Sequence of human NK(1) receptor (P25103 whole entry): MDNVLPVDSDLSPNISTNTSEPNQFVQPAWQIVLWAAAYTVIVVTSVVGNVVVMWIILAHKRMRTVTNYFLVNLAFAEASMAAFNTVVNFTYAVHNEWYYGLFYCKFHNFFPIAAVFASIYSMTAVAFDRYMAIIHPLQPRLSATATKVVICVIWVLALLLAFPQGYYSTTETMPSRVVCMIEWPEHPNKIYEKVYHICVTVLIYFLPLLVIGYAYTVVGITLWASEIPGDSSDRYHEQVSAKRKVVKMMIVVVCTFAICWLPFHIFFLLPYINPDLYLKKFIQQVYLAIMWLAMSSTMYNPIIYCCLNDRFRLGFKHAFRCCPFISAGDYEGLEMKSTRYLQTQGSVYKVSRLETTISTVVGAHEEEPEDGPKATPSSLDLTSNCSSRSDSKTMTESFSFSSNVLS

## CSCC[C@@H]1NC(=O)[C@H](CC(C)C)NC(=O)[C@H](CCCNC(=N)N)NC(=O)[C@H](CO)NC(=O)[C@@H]2CSSC[C@@H]3NC(=O)[C@H](CO)NC(=O)CNC(=O)[C@H]([C@@H](C)O)NC(=O)[C@H](CSSC[C@H](N)C(=O)N[C@@H](CCCCN)C(=O)NCC(=O)N[C@@H](CCCCN)C(=O)NCC(=O)N[C@@H](C)C(=O)N[C@@H](CCCCN)C(=O)N2)NC(=O)[C@H](CSSC[C@@H](C(N)=O)NC(=O)[C@H](CCCCN)NC(=O)CNC(=O)[C@H](CO)NC(=O)[C@H](CCCNC(=N)N)NC3=O)NC(=O)[C@H](CC(=O)O)NC(=O)[C@H](Cc2ccc(O)cc2)NC1=O [Omega conotoxin MVIIA]
[1]
  Potency as an analgesic relative to morphine: 100-1000 fold

## Cc1cccc(C)c1NC(=O)C[C@H]1CCN(C(=O)c2cc(C(F)(F)F)cc(C(F)(F)F)c2)[C@@H](Cc2ccccc2)C1.O=C(O)C[C@H](O)C(=O)O (relative stereo) [R116301, (2R-trans)-4-[1-[3,5-bis(trifluoromethyl)benzoyl]-2-(phenylmethyl)-4-piperidinyl]-N-(2,6-dimethylphenyl)-1-acetamide (S)-Hydroxybutanedioate]
Human NK(1) receptor
  Ki: 0.45 nM
[2]
  Selectivity toward NK(2) and NK(3) receptors: over 200 fold

## Botulinum toxin type A
[3]
  Relaxation of vascular smooth muscle: dose dependent relaxation

## OCCN(CCO)c1nc(N2CCCCC2)c2nc(N(CCO)CCO)nc(N3CCCCC3)c2n1 [Dipyridamole]
[4]; 75 microg/mL (0.150 mM), Kim et al
  Inhibition of growth of vascular smooth muscle cells: approximately 90%
[4]; after drug exposure of only 15 min
  Duration of sustained antiproliferative effects: 48 h

## Nc1ncnc2c1ncn2[C@@H]1O[C@H](CO)[C@@H](O)[C@H]1O [Adenosine, 6-amino-9-β-D-ribofuranosyl-9H-purine]
[5]
  Half life in the blood: about 10 seconds
[6]; 400 uM
  Relaxation of denuded rings as percent of the relaxation of intact rings: 35%
[6]; 500 uM
  Relaxation of denuded rings as percent of the relaxation of intact rings: 44%
[6]; at 400 and 500 uM
  Greater falls in tension than lidocaine alone: about 30%
[6]; denuded rings
  Concentration at which tension begins to decrease by over 5% relative to the precontracted state: 300 µM
[6]; denuded rings, 10 uM
  Tension expressed as a percent of baseline: 100%
[6]; denuded rings, 50 uM
  Tension expressed as a percent of baseline: 100% and 99%
[6]; denuded rings, 100 uM
  Tension expressed as a percent of baseline: 99% and 98%
[6]; denuded rings, 200 uM
  Relaxation (percent tension decrease) relative to the precontracted state: 4%
  Tension expressed as a percent of baseline: 95% and 93%
[6]; denuded rings, 300 uM
  Tension expressed as a percent of baseline: 88%
[6]; denuded rings, drug 10 μM
  Extent of relaxation, percentage of precontracted norepinephrine tension: 100.3 ± 0.2%
  Tension of aortic rings: 3.56 ± 0.08 g
[6]; denuded rings, drug 60 μM
  Extent of relaxation, percentage of precontracted norepinephrine tension: 100.0 ± 0.4%
  Tension of aortic rings: 3.55 ± 0.09 g
[6]; denuded rings, drug 160 μM
  Extent of relaxation, percentage of precontracted norepinephrine tension: 98.9 ± 0.5%
  Tension of aortic rings: 3.51 ± 0.09 g
[6]; denuded rings, drug 360 μM
  Extent of relaxation, percentage of precontracted norepinephrine tension: 95.2 ± 1.1%
  Tension of aortic rings: 3.39 ± 0.11 g
[6]; denuded rings, drug 660 μM
  Extent of relaxation, percentage of precontracted norepinephrine tension: 87.6 ± 2.3%
  Tension of aortic rings: 3.12 ± 0.14 g
[6]; denuded rings, drug 1060 μM
  Extent of relaxation, percentage of precontracted norepinephrine tension: 76.6 ± 3.4%
  Tension of aortic rings: 2.73 ± 0.17 g
[6]; denuded rings, drug 1560 μM
  Extent of relaxation, percentage of precontracted norepinephrine tension: 62.4 ± 4.2%
  Tension of aortic rings: 2.23 ± 0.17 g
[6]; intact rings
  Concentration at which tension begins to decrease by over 5% relative to the precontracted state: 100 µM
[6]; intact rings, 10 uM
  Relaxation (percent tension decrease) relative to the precontracted state: no change
  Tension expressed as a percent of baseline: 99%
[6]; intact rings, 50 uM
  Relaxation (percent tension decrease) relative to the precontracted state: no change
  Tension expressed as a percent of baseline: 96%
[6]; intact rings, 100 uM
  Tension expressed as a percent of baseline: 89%
[6]; intact rings, 200 uM
  Tension expressed as a percent of baseline: 76%
[6]; intact rings, 300 uM
  Tension expressed as a percent of baseline: 61%
[6]; intact rings, 400 uM
  Tension expressed as a percent of baseline: 48%
[6]; intact rings, 500 uM
  Tension expressed as a percent of baseline: 39%
[6]; intact rings, at 500 uM
  Maximum relaxation relative to the precontracted state: 48%
[6]; intact rings, drug 10 μM
  Extent of relaxation, percentage of precontracted norepinephrine tension: 99.0 ± 0.3%
  Tension of aortic rings: 3.65 ± 0.12 g
[6]; intact rings, drug 60 μM
  Extent of relaxation, percentage of precontracted norepinephrine tension: 96.2 ± 0.7%
  Tension of aortic rings: 3.54 ± 0.11 g
[6]; intact rings, drug 160 μM
  Extent of relaxation, percentage of precontracted norepinephrine tension: 89.7 ± 1.5%
  Tension of aortic rings: 3.30 ± 0.09 g
[6]; intact rings, drug 360 μM
  Extent of relaxation, percentage of precontracted norepinephrine tension: 76.3 ± 3.1%
  Tension of aortic rings: 2.81 ± 0.11 g
[6]; intact rings, drug 660 μM
  Extent of relaxation, percentage of precontracted norepinephrine tension: 60.7 ± 4.2%
  Tension of aortic rings: 2.23 ± 0.14 g
[6]; intact rings, drug 1060 μM
  Extent of relaxation, percentage of precontracted norepinephrine tension: 48.5 ± 3.9%
  Tension of aortic rings: 1.78 ± 0.13 g
[6]; intact rings, drug 1560 μM
  Extent of relaxation, percentage of precontracted norepinephrine tension: 38.9 ± 2.8%
  Tension of aortic rings: 1.43 ± 0.08 g
[6]
  Dependence of relaxation on an intact endothelium (denuded vs intact rings): dependent on an intact endothelium

## NC(=O)c1ncn([C@@H]2O[C@H](CO)[C@@H](O)[C@H]2O)c1N [Acadesine, 5-amino-4-imidazole carboxamide ribonucleoside]
[7]
  Safety in humans: safe in humans

## CCN(CC)CC(=O)Nc1c(C)cccc1C [Lidocaine]
[6]; denuded rings
  Concentration at which tension begins to decrease by over 5% relative to the precontracted state: 200 µM
[6]; denuded rings, 200 uM
  Relaxation (percent tension decrease) relative to the precontracted state: 7%
[6]; denuded rings, drug 10 μM
  Extent of relaxation, percentage of precontracted norepinephrine tension: 100.0 ± 0.4%
  Tension of aortic rings: 3.32 ± 0.12 g
[6]; denuded rings, drug 60 μM
  Extent of relaxation, percentage of precontracted norepinephrine tension: 99.4 ± 0.4%
  Tension of aortic rings: 3.31 ± 0.12 g
[6]; denuded rings, drug 160 μM
  Extent of relaxation, percentage of precontracted norepinephrine tension: 96.8 ± 0.7%
  Tension of aortic rings: 3.24 ± 0.12 g
[6]; denuded rings, drug 360 μM
  Extent of relaxation, percentage of precontracted norepinephrine tension: 93.4 ± 0.6%
  Tension of aortic rings: 3.11 ± 0.12 g
[6]; denuded rings, drug 660 μM
  Tension of aortic rings: 2.92 ± 0.12 g
[6]; denuded rings, drug 1060 μM
  Extent of relaxation, percentage of precontracted norepinephrine tension: 82.4 ± 1.0%
  Tension of aortic rings: 2.75 ± 0.12 g
[6]; denuded rings, drug 1560 μM
  Extent of relaxation, percentage of precontracted norepinephrine tension: 75.8 ± 2.0%
  Tension of aortic rings: 2.53 ± 0.13 g
[6]; intact rings
  Concentration at which tension begins to decrease by over 5% relative to the precontracted state: 200 µM
[6]; intact rings, 10 uM
  Relaxation (percent tension decrease) relative to the precontracted state: no change
  Tension expressed as a percent of baseline: 100%
[6]; intact rings, 50 uM
  Relaxation (percent tension decrease) relative to the precontracted state: no change
  Tension expressed as a percent of baseline: 96%
[6]; intact rings, 100 uM
  Relaxation (percent tension decrease) relative to the precontracted state: 5%
  Tension expressed as a percent of baseline: 96%
[6]; intact rings, 200 uM
  Tension expressed as a percent of baseline: 91%
[6]; intact rings, 300 uM
  Relaxation relative to the relaxation of intact adenosine alone: 14%
  Tension expressed as a percent of baseline: 84%
[6]; intact rings, 400 uM
  Relaxation (percent tension decrease) relative to the precontracted state: 24%
  Relaxation relative to the relaxation of intact adenosine alone: 30%
  Tension expressed as a percent of baseline: 76%
[6]; intact rings, 500 uM
  Relaxation relative to the relaxation of intact adenosine alone: 30%
  Tension expressed as a percent of baseline: 72%
[6]; intact rings, drug 10 μM
  Extent of relaxation, percentage of precontracted norepinephrine tension: 99.7 ± 0.2%
  Tension of aortic rings: 3.57 ± 0.08 g
[6]; intact rings, drug 60 μM
  Extent of relaxation, percentage of precontracted norepinephrine tension: 97.8 ± 0.7%
  Tension of aortic rings: 3.50 ± 0.08 g
[6]; intact rings, drug 160 μM
  Extent of relaxation, percentage of precontracted norepinephrine tension: 96.2 ± 0.6%
  Tension of aortic rings: 3.44 ± 0.07 g
[6]; intact rings, drug 360 μM
  Extent of relaxation, percentage of precontracted norepinephrine tension: 91.7 ± 0.5%
  Tension of aortic rings: 3.28 ± 0.07 g
[6]; intact rings, drug 660 μM
  Extent of relaxation, percentage of precontracted norepinephrine tension: 84.4 ± 1.2%
  Tension of aortic rings: 3.02 ± 0.07 g
[6]; intact rings, drug 1060 μM
  Extent of relaxation, percentage of precontracted norepinephrine tension: 76.2 ± 3.5%
  Tension of aortic rings: 2.73 ± 0.13 g
[6]; intact rings, drug 1560 μM
  Extent of relaxation, percentage of precontracted norepinephrine tension: 72.2 ± 3.5%
  Tension of aortic rings: 2.59 ± 0.14 g
[6]
  Dependence of relaxation on an intact endothelium (denuded vs intact rings): endothelium independent; also recorded: does not appear to be endothelium dependent
